Reference: US10471041B2, “Use of geninstein” (DSM IP ASSETS B.V., priority 2007, dated 2019)

Tested on: rats treated with scopolamine
Assay: Zone Quick test (phenol red thread) of tear production in the scopolamine dry eye model
Format: in vivo, rat
Details: FIG. 1
Description: Another well-accepted model of dry eye is the scopolamine model which utilizes subcutaneous injections (5 mg in 10 ml) or dermal patch or gel dosage (Durson et al., Invest. Ophthalmol. Vis. Sci. 43: 632-8, 2002) of scopolamine to induce a dry eye condition in rats by parasympatholytic blockade of natural tear production.
These models and their variations were used to test the efficacy of genistein, delivered as a feed admixture (50 mg/kg low dose and 250 mg/kg high dose) to ameliorate the effects of dry eye. In addition, one test group served as a control group, receiving vehicle feed only with no added isoflavonoids.
Tear volume was assessed by using absorptive threads impregnated with Phenol Red (zone quick test). Outcome measures are according to criteria published in test instructions as well as comparison with control animal results.
Tear volume was monitored by the Zone Quick test. This in-life test is a standardized measure of tear production. It consists of a thread impregnated with phenol red which causes a colour change of the length of the thread that becomes wet from tears when the thread is applied to the lacrimal lake. The length (in mm) of the wetted thread is proportional to the tear volume produced.
0-CON, 0-SCOP: each 8 control animals (not on scopolamine or on scopolamine)
50-SCOP: 8 animals (on scopolamine) suppl. with 50 ppm genistein […]

O=c1c(-c2ccc(O)cc2)coc2cc(O)cc(O)c12 [genistein, 4′,5,7-trihydroxy-isoflavone]
dose dependence of tear volume restoration (250 vs 50 genistein supplementation groups): more pronounced in the group supplemented with 250 mg than in that with 50 mg
tear volume (Zone Quick test, length of wetted thread) (genistein as feed admixture, 50 or 250 ppm, supplementation 2.5 weeks (MIDTEST) and 5.0 weeks (FINALTEST), compared with control animals): restored their tear volume almost to control values
